As usually defined, the IC50 is the point on the concentration scale where inhibition reaches its midpoint.

This is an account of results in patent US9382197B2, “Substituted hydroxamic acids and uses thereof” (Millennium Pharmaceuticals, Inc., priority 2010, dated 2016).

Where only a bound is given, the exact number is not on record here.

The first experiment concerns the target T1, purified human HDAC6 (Homo sapiens, UniProt Q9UBN7).
T1 construct: purchased BPS Bioscience 5006
T1 sequence (Q9UBN7 1-1215): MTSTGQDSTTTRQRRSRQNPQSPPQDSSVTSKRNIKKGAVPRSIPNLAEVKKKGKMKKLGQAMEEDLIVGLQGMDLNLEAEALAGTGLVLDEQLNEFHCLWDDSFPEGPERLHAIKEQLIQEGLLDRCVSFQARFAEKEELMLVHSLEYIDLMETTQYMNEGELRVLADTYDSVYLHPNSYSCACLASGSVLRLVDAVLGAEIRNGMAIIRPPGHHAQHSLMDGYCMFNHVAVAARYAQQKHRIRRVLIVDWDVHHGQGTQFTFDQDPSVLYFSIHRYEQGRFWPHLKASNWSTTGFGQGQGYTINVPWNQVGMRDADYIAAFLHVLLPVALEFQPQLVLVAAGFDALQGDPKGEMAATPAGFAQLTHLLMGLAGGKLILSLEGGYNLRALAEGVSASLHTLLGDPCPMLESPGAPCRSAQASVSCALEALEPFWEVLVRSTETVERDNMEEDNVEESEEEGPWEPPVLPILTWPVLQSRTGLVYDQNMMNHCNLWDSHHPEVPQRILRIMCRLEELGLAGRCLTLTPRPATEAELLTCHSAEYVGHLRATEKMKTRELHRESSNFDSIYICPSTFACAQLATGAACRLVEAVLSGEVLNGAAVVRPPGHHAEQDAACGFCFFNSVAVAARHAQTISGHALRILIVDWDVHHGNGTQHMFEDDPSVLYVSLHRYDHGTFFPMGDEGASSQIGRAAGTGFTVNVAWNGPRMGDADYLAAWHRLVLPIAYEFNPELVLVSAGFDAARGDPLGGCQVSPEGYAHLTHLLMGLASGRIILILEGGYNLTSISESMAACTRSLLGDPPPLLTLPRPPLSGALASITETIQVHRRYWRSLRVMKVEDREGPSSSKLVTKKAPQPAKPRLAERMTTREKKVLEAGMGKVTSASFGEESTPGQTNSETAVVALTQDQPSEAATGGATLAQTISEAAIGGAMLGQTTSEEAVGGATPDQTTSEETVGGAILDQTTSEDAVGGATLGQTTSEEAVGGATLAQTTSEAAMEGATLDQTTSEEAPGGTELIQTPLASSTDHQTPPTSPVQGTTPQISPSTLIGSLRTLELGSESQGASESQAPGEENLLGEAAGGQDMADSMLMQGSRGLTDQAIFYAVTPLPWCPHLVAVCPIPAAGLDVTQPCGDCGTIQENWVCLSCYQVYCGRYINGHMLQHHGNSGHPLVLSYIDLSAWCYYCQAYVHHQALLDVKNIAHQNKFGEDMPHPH
The experiment is described as follows: HDAC6 Enzyme Assay. The class given is biochemical. The following applies: bin: greater than 1 μM. The procedure, abridged: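 Purified human HDAC6 incubated 1 h at 30 °C with Ac-Arg-Gly-Lys(Ac)-AMC and compound; trichostatin A stop, trypsin release of AMC, fluorescence Ex 340/Em 460 nm. IC50 from concentration–response relative to DMSO.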
The compound `CC(NC(=O)Cc1cc(C(F)(F)F)cc(C(F)(F)F)c1)c1cccc(C(=O)NO)c1` (stereo not drawn) [Compound I-362, 3-[1-({[3,5-bis(trifluoromethyl)phenyl]acetyl}amino)ethyl]-N-hydroxybenzamide] had an IC50 of more than 1 µM.

With `CC(NC(=O)c1c(Cl)cccc1Cl)c1cccc(C(=O)NO)c1` (stereo not drawn) [Compound I-366, 2,6-dichloro-N-(1-{3-[(hydroxyamino)carbonyl]phenyl}ethyl)benzamide], the IC50 is more than 1 µM.

`CC(NC(=O)CC1CCCC1)c1ccc(C(=O)NO)cc1` (stereo not drawn) [Compound I-370, 4-{1-[(cyclopentylacetyl)amino]ethyl}-N-hydroxybenzamide] registered an IC50 of more than 1 µM.

As to `CC(C)(C)C(NC(=O)C1CCCC1)c1ccc(C(=O)NO)cc1` (stereo not drawn) [Compound I-373, 4-{1-[(cyclopentylcarbonyl)amino]-2,2-dimethylpropyl}-N-hydroxybenzamide], the IC50 was more than 1 µM.

Consider `CC(NC(=O)CC1CC1)c1ccc(C(=O)NO)cc1` (stereo not drawn) [Compound I-379, 4-{1-[(cyclopropylacetyl)amino]ethyl}-N-hydroxybenzamide], for which the IC50 was more than 1 µM.

Take `Cn1c(C(=O)NC(c2ccc(C(=O)NO)cc2)C(C)(C)C)cc(Cl)c1Cl` (stereo not drawn) [Compound I-386, 4,5-dichloro-N-(1-{4-[(hydroxyamino)carbonyl]phenyl}-2,2-dimethylpropyl)-1-methyl-1H-pyrrole-2-carboxamide]: the IC50 is more than 1 µM.

Still in this experiment, the particulars now being: purified human HDAC6, substrate Ac-Arg-Gly-Lys(Ac)-AMC, 1 hour at 30° C.; reported as bins.
For the compound `CC(C)(C)C(NC(=O)c1ccc(-c2ccccc2)cc1)c1ccc(C(=O)NO)cc1` (stereo not drawn) [Compound I-355, N-(1-{4-[(hydroxyamino)carbonyl]phenyl}-2,2-dimethylpropyl)biphenyl-4-carboxamide], the IC50 was in the range of 0.1 to 0.5 µM.

For `CC(NC(=O)c1cccn1C)c1ccc(C(=O)NO)cc1` (stereo not drawn) [Compound I-356, N-(1-{4-[(hydroxyamino)carbonyl]phenyl}ethyl)-1-methyl-1H-pyrrole-2-carboxamide], the IC50 is less than 0.1 µM.

With `CC(NC(=O)CC1Cc2ccccc2C1)c1ccc(C(=O)NO)cc1` (stereo not drawn) [Compound I-357, 4-{1-[(2,3-dihydro-1H-inden-2-ylacetyl)amino]ethyl}-N-hydroxybenzamide], the IC50 is less than 0.1 µM.

For `CC(=O)c1cccc(NC(=O)NC(C)c2ccc(C(=O)NO)cc2)c1` (stereo not drawn) [Compound I-358, 4-[1-({[(3-acetylphenyl)amino]carbonyl}amino)ethyl]-N-hydroxybenzamide], the 50% inhibitory concentration (IC50) is less than 0.1 µM.

Turning to `C[C@@H](NC(=O)c1cc(Cl)c(Cl)n1C)c1ccc(C(=O)NO)cc1` [Compound I-359, 4,5-dichloro-N-((1R)-1-{4-[(hydroxyamino)carbonyl]phenyl}ethyl)-1-methyl-1H-pyrrole-2-carboxamide], the IC50 was less than 0.1 µM.

The compound `CC(NC(=O)c1ccc2ncsc2c1)c1ccc(C(=O)NO)cc1` (stereo not drawn) [Compound I-360, N-(1-{4-[(hydroxyamino)carbonyl]phenyl}ethyl)-1,3-benzothiazole-6-carboxamide] registered an IC50 of less than 0.1 µM.

For the compound `CC(NS(=O)(=O)c1cccc2cccnc12)c1ccc(C(=O)NO)cc1` (stereo not drawn) [Compound I-363, N-hydroxy-4-{1-[(quinolin-8-ylsulfonyl)amino]ethyl}benzamide], the IC50 lay in the range of 0.1 to 0.5 µM.

Take `Cn1c(C(=O)NC(c2ccc(C(=O)NO)cc2)C(C)(C)C)cc2ccccc21` (stereo not drawn) [Compound I-364, N-(1-{4-[(hydroxyamino)carbonyl]phenyl}-2,2-dimethylpropyl)-1-methyl-1H-indole-2-carboxamide]: the IC50 lay in the range of 0.1 to 0.5 µM.

`CCC[C@@H](NC(=O)C(C)(C)C)c1ccc(C(=O)NO)cc1` [Compound I-365, 4-{(1R)-1-[(2,2-dimethylpropanoyl)amino]butyl}-N-hydroxybenzamide] yielded an IC50 of less than 0.1 µM.

`CCC[C@@H](NC(=O)c1oc2ccccc2c1C)c1ccc(C(=O)NO)cc1` [Compound I-367, N-((1R)-1-{4-[(hydroxyamino)carbonyl]phenyl}butyl)-3-methyl-1-benzofuran-2-carboxamide] came in with an IC50 of less than 0.1 µM.

`CC(C)[C@@H](NC(=O)NC(C)(C)C)c1ccc(C(=O)NO)cc1` [Compound I-368, 4-((1R)-1-{[(tert-butylamino)carbonyl]amino}-2-methylpropyl)-N-hydroxybenzamide] had an IC50 of 0.1 to 0.5 µM.

In turn, `CC(NS(=O)(=O)c1cc2ccccc2s1)c1ccc(C(=O)NO)cc1` (stereo not drawn) [Compound I-369, 4-{1-[(1-benzothien-2-ylsulfonyl)amino]ethyl}-N-hydroxybenzamide] gave an IC50 of 0.1 to 0.5 µM.

As to `CC(NC(=O)Nc1cccc(C(F)(F)F)c1)c1ccc(C(=O)NO)cc1` (stereo not drawn) [Compound I-371, N-hydroxy-4-{1-[({[3-(trifluoromethyl)phenyl]amino}carbonyl)amino]ethyl}benzamide], the IC50 is less than 0.1 µM.

`CC(NC(=O)C1C(C)(C)C1(C)C)c1ccc(C(=O)NO)cc1` (stereo not drawn) [Compound I-372, N-hydroxy-4-(1-{[(2,2,3,3-tetramethylcyclopropyl)carbonyl]amino}ethyl)benzamide]: the IC50 fell in the range of 0.1 to 0.5 µM.

As to `C[C@@H](NC(=O)NC12CC3CC(CC(C3)C1)C2)c1ccc(C(=O)NO)cc1` [Compound I-374, 4-[(1R)-1-({[1-adamantylamino]carbonyl}amino)ethyl]-N-hydroxybenzamide], the IC50 is less than 0.1 µM.

As for `CC(C)C(NC(=O)c1ccc(-c2ccccc2)[nH]c1=O)c1ccc(C(=O)NO)cc1` (stereo not drawn) [Compound I-375, N-(1-{4-[(hydroxyamino)carbonyl]phenyl}-2-methylpropyl)-2-oxo-6-phenyl-1,2-dihydropyridine-3-carboxamide], the half-maximal inhibitory concentration (IC50) was less than 0.1 µM.

Compound `Cc1ccc2[nH]c(C(=O)NC(C)c3cccc(C(=O)NO)c3)c(C)c2c1` (stereo not drawn) [Compound I-376, N-(1-{3-[(hydroxyamino)carbonyl]phenyl}ethyl)-3,5-dimethyl-1H-indole-2-carboxamide] displayed an IC50 of 0.1 to 0.5 µM.

`CC(C)(C)c1ccc(C(=O)NC(c2ccc(C(=O)NO)cc2)C(C)(C)C)cc1` (stereo not drawn) [Compound I-377, 4-tert-butyl-N-(1-{4-[(hydroxyamino)carbonyl]phenyl}-2,2-dimethylpropyl)benzamide]: the IC50 is 0.1 to 0.5 µM.

Take `CC(NC(=O)C(C)(C)c1ccc(Cl)cc1)c1ccc(C(=O)NO)cc1` (stereo not drawn) [Compound I-378, 4-(1-{[2-(4-chlorophenyl)-2-methylpropanoyl]amino}ethyl)-N-hydroxybenzamide]: the IC50 was less than 0.1 µM.

On to `CCC[C@@H](NC(=O)NC(C)(C)C)c1ccc(C(=O)NO)cc1` [Compound I-380, 4-((1R)-1-{[(tert-butylamino)carbonyl]amino}butyl)-N-hydroxybenzamide], for which the IC50 lay within 0.1 to 0.5 µM.

`CCc1ccc(NC(=O)NC(C)c2ccc(C(=O)NO)cc2)cc1` (stereo not drawn) [Compound I-381, 4-[1-({[(4-ethylphenyl)amino]carbonyl}amino)ethyl]-N-hydroxybenzamide]: the IC50 is less than 0.1 µM.

Compound `CC(C)C(NC(=O)C1CCCCCC1)c1ccc(C(=O)NO)cc1` (stereo not drawn) [Compound I-382, N-(1-{4-[(hydroxyamino)carbonyl]phenyl}-2-methylpropyl)cycloheptanecarboxamide] had a half-inhibitory concentration (IC50) of 0.1 to 0.5 µM.

For the compound `Cc1ccc(NC(=O)NC(C)c2ccc(C(=O)NO)cc2)c(C)c1` (stereo not drawn) [Compound I-383, 4-[1-({[(2,4-dimethylphenyl)amino]carbonyl}amino)ethyl]-N-hydroxybenzamide], the IC50 is less than 0.1 µM.

For `CC(NC(=O)Nc1ccccc1-c1ccccc1)c1ccc(C(=O)NO)cc1` (stereo not drawn) [Compound I-384, 4-(1-{[(biphenyl-2-ylamino)carbonyl]amino}ethyl)-N-hydroxybenzamide], the IC50 was less than 0.1 µM.

`CC(NC(=O)c1ccccc1)c1ccc(C(=O)NO)cc1` (stereo not drawn) [Compound I-385, 4-[1-(benzoylamino)ethyl]-N-hydroxybenzamide]: the IC50 is less than 0.1 µM.

Turning to `CCC[C@@H](NC(=O)C1(C)CCCCC1)c1ccc(C(=O)NO)cc1` [Compound I-387, N-hydroxy-4-((1R)-1-{[(1-methylcyclohexyl)carbonyl]amino}butyl)benzamide], the IC50 is less than 0.1 µM.

As to `CC(NC(=O)Nc1cc(Cl)cc(Cl)c1)c1ccc(C(=O)NO)cc1` (stereo not drawn) [Compound I-388, 4-[1-({[(3,5-dichlorophenyl)amino]carbonyl}amino)ethyl]-N-hydroxybenzamide], the IC50 lay in the range of 0.1 to 0.5 µM.
